Experiments:
rat [1] = conditions: Subchronic oral toxicity in rodents, wistar, Feed, dose end: 90 day, group: systemic, systemic / pathology gross / adrenal gland / discolored + systemic / pathology gross / adrenal gland / enlarged + systemic / pathology …
rat [2] = conditions: Subchronic oral toxicity in rodents, wistar, [Not Specified], dose end: 3 month, group: systemic
rat [3] = conditions: Peri- and post-natal toxicity study (Segment III), sprague dawley, Oral, Gavage/Intubation, dose end: 54 PND
mouse = conditions: Carcinogenicity, other, Oral, Feed, dose end: 18 month, group: systemic
rat [4] = conditions: Prenatal developmental toxicity study, wistar, Dermal, Topical, dose end: 19 GD
rabbit [5] = conditions: Prenatal developmental toxicity study; himalayan; Oral; Gavage/Intubation; dose end: 28 GD; group: maternal; systemic / in life observation / food consumption / food consumption + systemic / organ weight / adrenal gland / absolute + systemic / organ…
dog [6] = conditions: Subchronic oral toxicity in nonrodent, beagle, Feed, dose end: 6 month, group: systemic
rat [7] = conditions: Multigenerational reproductive toxicity study, wistar, Oral, Feed, dose end: 2 generation
rat [8] = conditions: Sub-acute repeat dose toxicity, Oral, Gavage/Intubation, dose end: 14 day, group: systemic
dog [9] = conditions: Subchronic oral toxicity in nonrodent, beagle, Gavage/Intubation, dose end: 91 day, group: systemic
rat [10] = conditions: Sub-acute repeat dose toxicity, Oral, Gavage/Intubation, dose end: 36 day
dog [11] = conditions: Subchronic oral toxicity in nonrodent, beagle, Gavage/Intubation, dose end: 91 day, group: systemic, systemic / in life observation / clinical signs / emesis + systemic / organ weight / liver / absolute + systemic / pathology microscopic / …
rabbit [12] = conditions: Prenatal developmental toxicity study; Oral; Gavage/Intubation; dose end: 19 GD; group: maternal; reproductive / reproductive performance / aborted / aborted + reproductive / reproductive performance / resorptions / resorptions + systemic…
primate = conditions: Subchronic oral toxicity in nonrodent, Gavage/Intubation, dose end: 91 day, group: systemic, systemic / pathology microscopic / intestine small / erosion
rat [13] = conditions: Prenatal developmental toxicity study, Oral, Gavage/Intubation, dose end: 18 GD
rat [14] = conditions: Subchronic oral toxicity in rodents, Gavage/Intubation, dose end: 91 day, group: systemic
rat [15] = conditions: Fertility (Segment I), Oral, Gavage/Intubation, dose end: 1 generation, group: parental
dog [16] = conditions: Sub-acute repeat dose toxicity; beagle; Oral; Gavage/Intubation; dose end: 14 day; group: systemic; systemic / clinical chemistry / [other] / [other] + systemic / clinical chemistry / cytochrome p450, nos / cytochrome p450, nos + systemic…
[17] = systemic / organ weight / kidney / nos + systemic / organ weight / prostate / nos + systemic / organ weight / adrenal gland / nos + systemic…
[18] = systemic / organ weight / prostate / nos + systemic / organ weight / adrenal gland / nos + systemic / organ weight / epididymis / nos + …
[19] = group: developmental, developmental / developmental landmark / preputial separation / preputial separation
[20] = group: parental, systemic / organ weight / [other] / absolute + systemic / organ weight / adrenal gland / absolute + systemic / organ weight / prostate / …
[21] = group: parental, systemic / pathology gross / kidney / dilatation
[22] = systemic / organ weight / adrenal gland / relative to body weight + systemic / organ weight / brain / relative to body weight + systemic / …
[23] = group: developmental, developmental / developmental landmark / anogenital distance (agd) / anogenital distance (agd)
[24] = group: developmental, developmental / developmental landmark / anogenital distance (agd) / anogenital distance (agd) + developmental / developmental malformation…
[25] = group: maternal, systemic / organ weight / adrenal gland / absolute
[26] = group: maternal, systemic / organ weight / adrenal gland / absolute + systemic / organ weight / liver / absolute
[27] = systemic / organ weight / adrenal gland / absolute + systemic / organ weight / adrenal gland / relative to body weight + systemic / clinical…
[28] = group: offspring, systemic / organ weight / adrenal gland / absolute + systemic / organ weight / liver / absolute
[29] = group: parental, systemic / organ weight / epididymis / absolute
[30] = group: reproductive, reproductive / reproductive performance / fertility / fertility + reproductive / offspring survival early / birth index / live birth index
[31] = systemic / clinical chemistry / [other] / [other]
[32] = systemic / hematology / leukocyte (wbc) count differential / leukocyte (wbc) + systemic / in life observation / body weight / body weight …
[33] = systemic / clinical chemistry / alkaline phosphatase (alp/alk) / alkaline phosphatase (alp/alk) + systemic / clinical chemistry / protein / …
[34] = systemic / pathology microscopic / liver / hypertrophy + systemic / pathology microscopic / brain / infiltration cellular + systemic / …
[35] = group: maternal, reproductive / offspring survival early / dead fetuses / dead fetuses + reproductive / offspring survival early / litter viability other / …
[36] = group: maternal, reproductive / offspring survival early / dead fetuses / dead fetuses + reproductive / reproductive performance / gestational length / …
[37] = group: systemic, systemic / in life observation / body weight / body weight gain + systemic / in life observation / body weight / offspring (pup) weight + …
[38] = group: systemic, systemic / in life observation / clinical signs / [other] + systemic / in life observation / clinical signs / body cold to touch + systemic…
[39] = group: developmental, developmental / developmental malformation / bone / delayed ossification + developmental / developmental malformation / bone / [other] + …
[40] = group: maternal, systemic / in life observation / body weight / body weight gain + systemic / in life observation / clinical signs / abnormal feces + …
[41] = systemic / clinical chemistry / [other] / [other] + systemic / clinical chemistry / cytochrome p450, nos / cytochrome p450, nos + systemic…
[42] = systemic / in life observation / food consumption / food consumption + systemic / pathology microscopic / kidney / dilatation + systemic / …
[43] = systemic / in life observation / body weight / body weight + systemic / in life observation / food consumption / food consumption

C=CC1(C)OC(=O)N(c2cc(Cl)cc(Cl)c2)C1=O (stereo not given) [Vinclozolin]
LEL (rat [1]): 24 mg/kg/day
LOAEL (rat [1]): 24 mg/kg/day
NEL (rat [1]): 4.4 mg/kg/day
NOAEL (rat [1]): 4.4 mg/kg/day
LOAEL (rat [2]; [17]): > 225 mg/kg/day
NOAEL (rat [2]; [17]): ≥ 225 mg/kg/day
LEL (rat [2]; [18]): 50 mg/kg/day
NEL (rat [2]; [18]): < 50 mg/kg/day
LEL (rat [3]; [19]): 10 mg/kg/day
LOAEL (rat [3]; [19]): > 100 mg/kg/day
NEL (rat [3]; [19]): < 10 mg/kg/day
NOAEL (rat [3]; [19]): ≥ 100 mg/kg/day
LOAEL (rat [3]; [20]): > 100 mg/kg/day
NOAEL (rat [3]; [20]): ≥ 100 mg/kg/day
LEL (rat [3]; [21]): 10 mg/kg/day
NEL (rat [3]; [21]): < 10 mg/kg/day
LOAEL (mouse; systemic / in life observation / body weight / body weight gain): 20.6 mg/kg/day
LEL (mouse; [22]): 2.1 mg/kg/day
NEL (mouse; [22]): < 2.1 mg/kg/day
NOAEL (mouse; [22]): 2.1 mg/kg/day
LEL (rat [4]; [23]): 180 mg/kg/day
LOAEL (rat [4]; [23]): 180 mg/kg/day
NEL (rat [4]; [24]): 60 mg/kg/day
NOAEL (rat [4]; [24]): 60 mg/kg/day
LEL (rat [4]; [25]): 180 mg/kg/day
LOAEL (rat [4]; [25]): 180 mg/kg/day
NEL (rat [4]; [26]): 60 mg/kg/day
NOAEL (rat [4]; [26]): 60 mg/kg/day
LEL (rabbit [5]): 200 mg/kg/day
LOAEL (rabbit [5]): 200 mg/kg/day
NEL (rabbit [5]): 50 mg/kg/day
NOAEL (rabbit [5]): 50 mg/kg/day
LOAEL (dog [6]; systemic / organ weight / adrenal gland / absolute + systemic / organ weight / adrenal gland / relative to body weight): 7.5 mg/kg/day
NEL (dog [6]; [27]): 2.5 mg/kg/day
NOAEL (dog [6]; [27]): 2.5 mg/kg/day
LEL (dog [6]; systemic / organ weight / adrenal gland / absolute + systemic / organ weight / adrenal gland / relative to body weight + systemic / organ …): 7.5 mg/kg/day
LEL (rat [7]; [28]): 30 mg/kg/day
LOAEL (rat [7]; [28]): 30 mg/kg/day
NEL (rat [7]; [28]): 4.9 mg/kg/day
NOAEL (rat [7]; [28]): 4.9 mg/kg/day
LEL (rat [7]; [29]): 4.9 mg/kg/day
LOAEL (rat [7]; [29]): 4.9 mg/kg/day
NEL (rat [7]; [29]): < 4.9 mg/kg/day
NOAEL (rat [7]; [29]): < 4.9 mg/kg/day
NEL (rat [7]; group: reproductive, reproductive / reproductive performance / fertility / fertility): 101 mg/kg/day
LEL (rat [7]; [30]): 290 mg/kg/day
LOAEL (rat [7]; [30]): > 290 mg/kg/day
NOAEL (rat [7]; [30]): ≥ 290 mg/kg/day

CC(C)(C)c1cc(/C=C2\SC(N)=NC2=O)cc(C(C)(C)C)c1O.CS(=O)(=O)O [Darbufelone mesylate]
LEL (rat [8]; [31]): 10 mg/kg/day
NEL (rat [8]; [31]): < 10 mg/kg/day
LOAEL (rat [8]; [32]): > 1000 mg/kg/day
NOAEL (rat [8]; [32]): ≥ 1000 mg/kg/day
LOAEL (dog [9]; [33]): > 10 mg/kg/day
NOAEL (dog [9]; [33]): ≥ 10 mg/kg/day
LEL (dog [9]; [34]): 2 mg/kg/day
NEL (dog [9]; [34]): < 2 mg/kg/day
LOAEL (rat [10]; [35]): > 25 mg/kg/day
NOAEL (rat [10]; [35]): ≥ 25 mg/kg/day
LEL (rat [10]; [36]): 5 mg/kg/day
NEL (rat [10]; [36]): < 5 mg/kg/day
LOAEL (rat [10]; [37]): > 25 mg/kg/day
NOAEL (rat [10]; [37]): ≥ 25 mg/kg/day
LEL (rat [10]; [38]): 5 mg/kg/day
NEL (rat [10]; [38]): < 5 mg/kg/day
LEL (dog [11]): 2 mg/kg/day
LOAEL (dog [11]): > 10 mg/kg/day
NEL (dog [11]): < 2 mg/kg/day
NOAEL (dog [11]): ≥ 10 mg/kg/day
LOAEL (rabbit [12]): > 35 mg/kg/day
NOAEL (rabbit [12]): ≥ 35 mg/kg/day
LEL (primate): 10 mg/kg/day
LOAEL (primate): > 50 mg/kg/day
NEL (primate): 5 mg/kg/day
NOAEL (primate): ≥ 50 mg/kg/day
LOAEL (rat [13]; [39]): > 75 mg/kg/day
NOAEL (rat [13]; [39]): ≥ 75 mg/kg/day
LOAEL (rat [13]; [40]): > 75 mg/kg/day
NOAEL (rat [13]; [40]): ≥ 75 mg/kg/day
LOAEL (rat [14]; [41]): > 75 mg/kg/day
NOAEL (rat [14]; [41]): ≥ 75 mg/kg/day
LEL (rat [14]; [42]): 10 mg/kg/day
NEL (rat [14]; [42]): < 10 mg/kg/day
LEL (rat [15]; systemic / in life observation / body weight / body weight): 75 mg/kg/day
LOAEL (rat [15]; [43]): > 100 mg/kg/day
NEL (rat [15]; [43]): 35 mg/kg/day
NOAEL (rat [15]; [43]): ≥ 100 mg/kg/day
LEL (dog [16]): 2 mg/kg/day
LOAEL (dog [16]): > 5 mg/kg/day
NEL (dog [16]): < 2 mg/kg/day
NOAEL (dog [16]): ≥ 5 mg/kg/day

Source: EPA's ToxRefDB 2
